From patent publication US20200024278A1, “COMPOSITION COMPRISING ANTIBIOTIC COMPOUND AND AN HETEROCYCLIC COMPOUND AND THEIR USE IN PREVENTING OR TREATING BACTERIAL INFECTIONS” (MUTABILIS, priority 2016, published 2020)

Columns and labels:
Assay in all cases: MIC, broth microdilution (CLSI), substance alone or ATB combined with compound at 4 or 8 μg/mL
[1] = test system: KPN BAA-1898; format: cell-based, K. pneumoniae; conditions: for MIC ATB combined with Example: Example @8 μg/ml
Procedure, shortened: (§1)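 Growth inhibition endpoint, read visually after 16-20 h at 35° C in ambient air. Cation-adjusted Mueller-Hinton broth, inoculum 5·10^5 CFU/mL, CLSI M7-A7 protocol.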

[2] = test system: KPN UFR42; format: cell-based, K. pneumoniae; conditions: for MIC ATB combined with Example / MIC ATB combined with Example compound: KPN UFR42; for MIC ATB combined with Example: Example @8 μg/ml; for MIC ATB combined with Example compound: compound @8 μg/ml
Procedure, shortened: as §1

[3] = test system: KPN 6299; format: cell-based, K. pneumoniae; conditions: for MIC ATB combined with Example: Example @8 μg/ml
Procedure, shortened: as §1

[4] = test system: SAU 29213; format: cell-based, S. aureus; conditions: for MIC ATB combined with Example / MIC ATB combined with Example compound: SAU 29213; for MIC ATB combined with Example: Example @8 μg/ml; for MIC ATB combined with Example compound: compound @8 μg/ml
Procedure, shortened: as §1

[5] = test system: SPN 49619; format: cell-based, S. pneumoniae; conditions: for MIC ATB combined with Example / MIC ATB combined with Example compound: SPN 49619; for MIC ATB combined with Example: Example @8 μg/ml; for MIC ATB combined with Example compound: compound @8 μg/ml
Procedure, shortened: as §1

[6] = test system: ECO 190317; format: cell-based, E. coli; conditions: for MIC ATB combined with Example: Example @8 μg/ml
Procedure, shortened: as §1

[7] = test system: ECO UFR39; format: cell-based, E. coli; conditions: for MIC ATB combined with Example / MIC ATB combined with Example compound: ECO UFR39; for MIC ATB combined with Example: Example @8 μg/ml; for MIC ATB combined with Example compound: compound @8 μg/ml
Procedure, shortened: as §1

[8] = test system: PAE UFR90; format: cell-based, P. aeruginosa; conditions: PAE UFR90; for MIC ATB combined with Example: Example @8 μg/ml; for MIC ATB combined with Example compound: compound @8 μg/ml
Procedure, shortened: as §1

[9] = test system: PAE 105250; format: cell-based, P. aeruginosa; conditions: PAE 105250; for MIC ATB combined with Example: Example @8 μg/ml; for MIC ATB combined with Example compound: compound @8 μg/ml
Procedure, shortened: as §1

[10] = test system: PAE UFR48; format: cell-based, P. aeruginosa; conditions: PAE UFR48; for MIC ATB combined with Example: Example @8 μg/ml; for MIC ATB combined with Example compound: compound @8 μg/ml
Procedure, shortened: as §1

[11] = test system: ECL P99; format: cell-based, E. cloacae; conditions: for MIC ATB combined with Example: Example @8 μg/ml
Procedure, shortened: as §1

O=C1N2CC(n3cccn3)=CC(C2)N1OC(F)(F)C(=O)[O-].[Li+] (stereo not shown) [Example 13, lithium difluoro-(7-oxo-3-pyrazol-1-yl-1,6-diaza-bicyclo[3.2.1]oct-3-en-6-yloxy)-acetate]
MIC ATB combined with Example ([1]; ATB ATM, KPN BAA-1898): 4 µg/mL | MIC ATB combined with Example ([1]; ATB FEP, KPN BAA-1898): 0.25 µg/mL | MIC ATB combined with Example ([1]; ATB FOS, KPN BAA-1898): 4 µg/mL | MIC ATB combined with Example ([1]; ATB MEM, KPN BAA-1898): 0.25 µg/mL | MIC ATB combined with Example ([1]; ATB PIP, KPN BAA-1898): 32 µg/mL | MIC ([1]; Klebsiella pneumoniae, BAA1898): 16 µg/mL | MIC ATB combined with Example compound ([1]; MIC of CIP, compound @8 μg/ml, KPN BAA-1898): 16 µg/mL | MIC ATB combined with Example ([2]; ATB ATM): 0.125 µg/mL | MIC ATB combined with Example ([2]; ATB FEP): <=0.031 μg/mL | MIC ATB combined with Example ([2]; ATB FOS): 4 µg/mL | MIC ATB combined with Example ([2]; ATB MEM): >32 µg/mL | MIC ATB combined with Example ([2]; ATB PIP): >32 µg/mL | MIC ([2]; Klebsiella pneumoniae): 16 µg/mL | MIC ATB combined with Example compound ([2]; MIC of CIP): >32 µg/mL | MIC ATB combined with Example compound ([2]; MIC of CPO): 32 µg/mL | MIC ATB combined with Example ([3]; ATB ATM): <=0.031 μg/mL | MIC ATB combined with Example ([3]; ATB FEP): 0.063 µg/mL | MIC ATB combined with Example ([3]; ATB FOS): 8 µg/mL | MIC ATB combined with Example ([3]; ATB MEM): <=0.031 μg/mL | MIC ATB combined with Example ([3]; ATB PIP): 0.5 µg/mL | MIC ATB combined with Example compound ([3]; MIC of CIP, compound @8 μg/ml): 32 µg/mL | MIC ATB combined with Example ([4]; ATB ATM): >32 µg/mL | MIC ATB combined with Example ([4]; ATB FEP): 2 µg/mL | MIC ATB combined with Example ([4]; ATB FOS): 0.5 µg/mL | MIC ATB combined with Example ([4]; ATB MEM): <=0.031 μg/mL | MIC ATB combined with Example ([4]; ATB PIP): 1 µg/mL | MIC ATB combined with Example compound ([4]; MIC of CIP): 0.25 µg/mL | MIC ATB combined with Example compound ([4]; MIC of CLI): 0.063 µg/mL | MIC ATB combined with Example compound ([4]; MIC of CPO): 0.5 µg/mL | MIC ATB combined with Example compound ([4]; MIC of DAP): 1 µg/mL | MIC ATB combined with Example compound ([4]; MIC of ERY): 0.125 µg/mL | MIC ATB combined with Example compound ([4]; MIC of LZD): 1 µg/mL | MIC ATB combined with Example compound ([4]; MIC of RIF): 0.0078 µg/mL | MIC ATB combined with Example compound ([4]; MIC of SYN): 0.25 µg/mL | MIC ATB combined with Example compound ([4]; MIC of VAN): 1 µg/mL | MIC ([4]; Staphylococcus aureus, MSSA): 32 µg/mL | MIC ATB combined with Example ([5]; ATB ATM): >32 µg/mL | MIC ATB combined with Example ([5]; ATB FEP): 0.063 µg/mL | MIC ATB combined with Example ([5]; ATB FOS): 32 µg/mL | MIC ATB combined with Example ([5]; ATB MEM): <=0.031 μg/mL | MIC ATB combined with Example ([5]; ATB PIP): 0.5 µg/mL | MIC ATB combined with Example compound ([5]; MIC of CIP): 0.5 µg/mL | MIC ATB combined with Example compound ([5]; MIC of CLI): 0.063 µg/mL | MIC ATB combined with Example compound ([5]; MIC of CPO): <=0.031 μg/mL | MIC ATB combined with Example compound ([5]; MIC of DAP): 0.5 µg/mL | MIC ATB combined with Example compound ([5]; MIC of ERY): 0.063 µg/mL | MIC ATB combined with Example compound ([5]; MIC of LZD): 1 µg/mL | MIC ATB combined with Example compound ([5]; MIC of RIF): 0.0078 µg/mL | MIC ATB combined with Example compound ([5]; MIC of SYN): 0.5 µg/mL | MIC ATB combined with Example compound ([5]; MIC of VAN): 0.25 µg/mL | MIC ([5]; Streptococcus pneumoniae): > 32 µg/mL | MIC ATB combined with Example ([6]; ATB ATM, ECO 190317): <0.031 µg/mL | MIC ATB combined with Example ([6]; ATB FEP, ECO 190317): <0.031 µg/mL | MIC ATB combined with Example ([6]; ATB FOS, ECO 190317): <0.125 µg/mL | MIC ATB combined with Example ([6]; ATB MEM, ECO 190317): <0.031 µg/mL | MIC ATB combined with Example ([6]; ATB PIP, ECO 190317): <0.031 µg/mL | MIC ([6]; Escherichia coli): 4 µg/mL | MIC ATB combined with Example compound ([6]; MIC of CIP, compound @8 μg/ml, ECO 190317): <0.031 µg/mL | MIC ATB combined with Example ([7]; ATB ATM): <0.031 µg/mL | MIC ATB combined with Example ([7]; ATB FEP): <0.031 µg/mL | MIC ATB combined with Example ([7]; ATB FOS): <0.125 µg/mL | MIC ATB combined with Example ([7]; ATB MEM): <=0.031 μg/mL | MIC ATB combined with Example ([7]; ATB PIP): <0.031 µg/mL | MIC ([7]; Escherichia coli): 8 µg/mL | MIC ATB combined with Example compound ([7]; MIC of CIP): <0.031 µg/mL | MIC ATB combined with Example compound ([7]; MIC of CPO): <0.031 µg/mL | MIC ATB combined with Example ([8]; ATB ATM): 16 µg/mL | MIC ATB combined with Example ([8]; ATB FEP): 8 µg/mL | MIC ATB combined with Example ([8]; ATB FOS): 8 µg/mL | MIC ATB combined with Example ([8]; ATB MEM): 2 µg/mL | MIC ATB combined with Example ([8]; ATB PIP): >32 µg/mL | MIC ATB combined with Example compound ([8]; MIC of CIP): 1 µg/mL | MIC ATB combined with Example compound ([8]; MIC of CPO): 16 µg/mL | MIC ATB combined with Example ([9]; ATB ATM): 8 µg/mL | MIC ATB combined with Example ([9]; ATB FEP): 8 µg/mL | MIC ATB combined with Example ([9]; ATB FOS): >128 µg/mL | MIC ATB combined with Example ([9]; ATB MEM): 2 µg/mL | MIC ATB combined with Example ([9]; ATB PIP): 32 µg/mL | MIC ATB combined with Example compound ([9]; MIC of CIP): 0.063 µg/mL | MIC ATB combined with Example compound ([9]; MIC of CPO): 16 µg/mL | MIC ATB combined with Example ([10]; ATB ATM): 8 µg/mL | MIC ATB combined with Example ([10]; ATB FEP): 32 µg/mL | MIC ATB combined with Example ([10]; ATB FOS): 16 µg/mL | MIC ATB combined with Example ([10]; ATB MEM): 0.5 µg/mL | MIC ATB combined with Example ([10]; ATB PIP): 32 µg/mL | MIC ATB combined with Example compound ([10]; MIC of CIP): 4 µg/mL | MIC ATB combined with Example compound ([10]; MIC of CPO): >32 µg/mL | MIC ATB combined with Example ([11]; ATB ATM, ECL P99): 2 µg/mL | MIC ATB combined with Example ([11]; ATB FEP, ECL P99): <=0.031 μg/mL | MIC ATB combined with Example ([11]; ATB FOS, ECL P99): 32 µg/mL | MIC ATB combined with Example ([11]; ATB MEM, ECL P99): <=0.031 μg/mL | MIC ATB combined with Example ([11]; ATB PIP, ECL P99): 4 µg/mL | MIC ([11]; Enterobacter cloacae): 16 µg/mL | MIC ATB combined with Example compound ([11]; MIC of CIP, compound @8 μg/ml, ECL P99): <=0.031 μg/mL
